From patent US20250312462A1, “PAK1 DEGRADERS AND METHODS OF USE THEREOF” (INSTITUTE FOR CANCER RESEARCH D/B/A THE RESEARCH INSTITUTE …, priority 2022, published 2025)

Legend:
Experiment in all cases: KINOMEscan
Settings in all cases: read-out: Percent Control
PFPK5(P. falciparum) = molecular target: T1, PFPK5(P. falciparum) (Plasmodium falciparum, UniProt P61075); format: binding
T1 construct: purchased DiscoverX

MAP4K3 = MAP4K3 (Homo sapiens, UniProt Q8IVH8)
Protocol: (§1) The kinase engagement assay (KINOMEscan®) was performed by DiscoverX assessing binding abilities toward a set of kinases.

MET = MET (Homo sapiens, UniProt P08581)
Protocol: as §1

BRAF = BRAF (Homo sapiens, UniProt P15056)
Protocol: as §1

PRKG2 = PRKG2 (Homo sapiens, UniProt Q13237)
Protocol: as §1

MAP4K4 = MAP4K4 (Homo sapiens, UniProt O95819)
Protocol: as §1

NDR1 = NDR1 (Homo sapiens, UniProt Q15208)
Protocol: as §1

PIK3CA(H1047L) = PIK3CA(H1047L) (Homo sapiens, UniProt P42336, H1047L)
Protocol: as §1

ALK = ALK (Homo sapiens, UniProt Q9UM73)
Protocol: as §1

EPHB3 = EPHB3 (Homo sapiens, UniProt P54753)
Protocol: as §1

TRKC = TRKC (Homo sapiens, UniProt Q16288)
Protocol: as §1

ERK1 = ERK1 (Homo sapiens, UniProt P27361)
Protocol: as §1

PIM1 = PIM1 (Homo sapiens, UniProt P11309)
Protocol: as §1

PIK3CA(E545K) = PIK3CA(E545K) (Homo sapiens, UniProt P42336, E545K)
Protocol: as §1

ALK(C1156Y) = ALK(C1156Y) (Homo sapiens, UniProt Q9UM73, C1156Y)
Protocol: as §1

FGFR3(G697C) = FGFR3(G697C) (Homo sapiens, UniProt P22607, G697C)
Protocol: as §1

CHEK2 = CHEK2 (Homo sapiens, UniProt O96017)
Protocol: as §1

PRKCI = PRKCI (Homo sapiens, UniProt P41743)
Protocol: as §1

CDK7 = CDK7 (Homo sapiens, UniProt P50613)
Protocol: as §1

RIPK5 = RIPK5 (Homo sapiens, UniProt Q6XUX3)
Chain of RIPK5 (Q6XUX3 whole entry): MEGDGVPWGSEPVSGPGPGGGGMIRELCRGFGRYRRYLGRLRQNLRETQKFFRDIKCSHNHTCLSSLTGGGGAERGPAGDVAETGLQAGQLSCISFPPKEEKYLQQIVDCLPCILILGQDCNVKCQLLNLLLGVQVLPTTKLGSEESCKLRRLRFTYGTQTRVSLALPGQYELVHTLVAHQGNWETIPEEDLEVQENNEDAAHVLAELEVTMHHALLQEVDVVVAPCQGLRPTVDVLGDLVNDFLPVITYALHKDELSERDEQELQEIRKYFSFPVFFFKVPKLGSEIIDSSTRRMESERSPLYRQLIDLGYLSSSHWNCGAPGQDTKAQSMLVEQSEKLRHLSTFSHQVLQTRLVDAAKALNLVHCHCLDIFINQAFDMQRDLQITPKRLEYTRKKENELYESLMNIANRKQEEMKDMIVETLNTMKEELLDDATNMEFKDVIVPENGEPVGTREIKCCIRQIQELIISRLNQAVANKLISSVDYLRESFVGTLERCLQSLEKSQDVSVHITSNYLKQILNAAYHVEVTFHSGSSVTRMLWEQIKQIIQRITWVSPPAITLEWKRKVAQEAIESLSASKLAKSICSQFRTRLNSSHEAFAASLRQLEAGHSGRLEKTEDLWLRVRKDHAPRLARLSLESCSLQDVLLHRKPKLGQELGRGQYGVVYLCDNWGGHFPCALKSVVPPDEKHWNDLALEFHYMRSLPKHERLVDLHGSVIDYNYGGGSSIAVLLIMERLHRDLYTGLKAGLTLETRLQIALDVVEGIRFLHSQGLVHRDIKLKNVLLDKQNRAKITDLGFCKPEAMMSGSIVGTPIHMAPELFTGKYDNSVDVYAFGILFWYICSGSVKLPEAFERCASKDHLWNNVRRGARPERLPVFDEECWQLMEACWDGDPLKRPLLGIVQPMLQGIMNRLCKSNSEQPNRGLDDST
Protocol: as §1

Chain of NDR1 (Q15208 whole entry): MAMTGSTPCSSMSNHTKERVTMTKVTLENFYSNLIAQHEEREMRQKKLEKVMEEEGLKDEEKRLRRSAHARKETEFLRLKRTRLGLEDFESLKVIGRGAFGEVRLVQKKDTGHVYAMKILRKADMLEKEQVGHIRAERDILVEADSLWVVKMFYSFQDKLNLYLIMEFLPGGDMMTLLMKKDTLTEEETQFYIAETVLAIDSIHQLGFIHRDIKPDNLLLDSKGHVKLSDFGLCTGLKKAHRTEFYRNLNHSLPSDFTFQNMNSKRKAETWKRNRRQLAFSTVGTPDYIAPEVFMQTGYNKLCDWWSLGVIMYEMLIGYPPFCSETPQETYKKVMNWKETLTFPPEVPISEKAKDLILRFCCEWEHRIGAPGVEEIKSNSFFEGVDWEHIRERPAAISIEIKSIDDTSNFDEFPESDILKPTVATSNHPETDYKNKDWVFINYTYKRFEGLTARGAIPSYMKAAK
Chain of MET (P08581 25-1390): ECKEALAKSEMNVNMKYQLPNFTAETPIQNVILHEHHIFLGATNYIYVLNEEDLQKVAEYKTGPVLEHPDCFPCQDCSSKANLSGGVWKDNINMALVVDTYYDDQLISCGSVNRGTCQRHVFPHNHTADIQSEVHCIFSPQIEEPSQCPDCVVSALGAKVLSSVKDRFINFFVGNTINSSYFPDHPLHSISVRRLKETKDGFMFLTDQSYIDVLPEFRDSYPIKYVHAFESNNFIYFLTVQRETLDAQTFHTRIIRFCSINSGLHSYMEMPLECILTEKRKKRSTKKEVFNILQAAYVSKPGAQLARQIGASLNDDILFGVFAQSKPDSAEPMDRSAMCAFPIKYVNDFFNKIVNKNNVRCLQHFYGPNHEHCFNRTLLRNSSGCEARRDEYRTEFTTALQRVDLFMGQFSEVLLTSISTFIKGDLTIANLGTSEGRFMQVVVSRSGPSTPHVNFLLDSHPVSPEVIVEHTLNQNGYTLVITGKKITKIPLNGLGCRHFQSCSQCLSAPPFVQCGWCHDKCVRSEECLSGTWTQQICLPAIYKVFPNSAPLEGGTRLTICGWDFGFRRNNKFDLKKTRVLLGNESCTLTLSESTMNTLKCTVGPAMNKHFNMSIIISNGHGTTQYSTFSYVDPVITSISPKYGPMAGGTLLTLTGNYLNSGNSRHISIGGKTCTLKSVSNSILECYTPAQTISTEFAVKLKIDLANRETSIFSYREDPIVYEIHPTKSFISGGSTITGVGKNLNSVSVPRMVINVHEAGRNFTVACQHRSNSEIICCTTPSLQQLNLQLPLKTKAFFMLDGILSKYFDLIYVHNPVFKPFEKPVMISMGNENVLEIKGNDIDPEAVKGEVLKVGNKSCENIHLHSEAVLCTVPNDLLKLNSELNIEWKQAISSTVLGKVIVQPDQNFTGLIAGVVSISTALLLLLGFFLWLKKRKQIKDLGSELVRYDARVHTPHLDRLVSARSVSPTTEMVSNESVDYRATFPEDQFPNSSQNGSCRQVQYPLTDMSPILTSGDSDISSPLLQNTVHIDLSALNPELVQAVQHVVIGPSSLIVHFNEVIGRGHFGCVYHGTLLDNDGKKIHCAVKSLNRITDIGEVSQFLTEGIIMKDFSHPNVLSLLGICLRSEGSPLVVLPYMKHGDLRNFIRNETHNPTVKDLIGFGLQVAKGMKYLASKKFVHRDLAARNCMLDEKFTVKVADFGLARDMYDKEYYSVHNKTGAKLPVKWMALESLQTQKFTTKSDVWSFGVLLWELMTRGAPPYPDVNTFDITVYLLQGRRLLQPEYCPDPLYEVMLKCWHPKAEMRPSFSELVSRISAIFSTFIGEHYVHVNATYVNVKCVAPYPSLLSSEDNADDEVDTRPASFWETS
T1 sequence (P61075 whole entry): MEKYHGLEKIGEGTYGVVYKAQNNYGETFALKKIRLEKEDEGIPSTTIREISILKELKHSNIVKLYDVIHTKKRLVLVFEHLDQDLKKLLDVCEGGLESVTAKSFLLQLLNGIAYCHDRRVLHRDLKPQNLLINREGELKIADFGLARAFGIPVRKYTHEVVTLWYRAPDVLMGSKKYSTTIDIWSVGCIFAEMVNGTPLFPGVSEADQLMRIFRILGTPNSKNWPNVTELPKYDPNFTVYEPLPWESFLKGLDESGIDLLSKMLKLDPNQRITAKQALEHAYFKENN
Chain of ERK1 (P27361 whole entry): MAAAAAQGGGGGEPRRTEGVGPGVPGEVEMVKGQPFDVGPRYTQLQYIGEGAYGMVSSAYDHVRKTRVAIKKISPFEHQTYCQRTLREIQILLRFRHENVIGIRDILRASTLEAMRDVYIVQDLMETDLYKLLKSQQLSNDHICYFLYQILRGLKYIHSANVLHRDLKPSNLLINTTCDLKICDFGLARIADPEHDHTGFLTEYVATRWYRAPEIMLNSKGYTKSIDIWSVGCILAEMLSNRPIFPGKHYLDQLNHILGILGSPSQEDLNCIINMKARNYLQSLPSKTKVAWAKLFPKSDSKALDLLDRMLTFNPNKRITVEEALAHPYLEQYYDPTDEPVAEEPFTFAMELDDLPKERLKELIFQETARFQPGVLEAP
Chain of MAP4K3 (Q8IVH8 whole entry): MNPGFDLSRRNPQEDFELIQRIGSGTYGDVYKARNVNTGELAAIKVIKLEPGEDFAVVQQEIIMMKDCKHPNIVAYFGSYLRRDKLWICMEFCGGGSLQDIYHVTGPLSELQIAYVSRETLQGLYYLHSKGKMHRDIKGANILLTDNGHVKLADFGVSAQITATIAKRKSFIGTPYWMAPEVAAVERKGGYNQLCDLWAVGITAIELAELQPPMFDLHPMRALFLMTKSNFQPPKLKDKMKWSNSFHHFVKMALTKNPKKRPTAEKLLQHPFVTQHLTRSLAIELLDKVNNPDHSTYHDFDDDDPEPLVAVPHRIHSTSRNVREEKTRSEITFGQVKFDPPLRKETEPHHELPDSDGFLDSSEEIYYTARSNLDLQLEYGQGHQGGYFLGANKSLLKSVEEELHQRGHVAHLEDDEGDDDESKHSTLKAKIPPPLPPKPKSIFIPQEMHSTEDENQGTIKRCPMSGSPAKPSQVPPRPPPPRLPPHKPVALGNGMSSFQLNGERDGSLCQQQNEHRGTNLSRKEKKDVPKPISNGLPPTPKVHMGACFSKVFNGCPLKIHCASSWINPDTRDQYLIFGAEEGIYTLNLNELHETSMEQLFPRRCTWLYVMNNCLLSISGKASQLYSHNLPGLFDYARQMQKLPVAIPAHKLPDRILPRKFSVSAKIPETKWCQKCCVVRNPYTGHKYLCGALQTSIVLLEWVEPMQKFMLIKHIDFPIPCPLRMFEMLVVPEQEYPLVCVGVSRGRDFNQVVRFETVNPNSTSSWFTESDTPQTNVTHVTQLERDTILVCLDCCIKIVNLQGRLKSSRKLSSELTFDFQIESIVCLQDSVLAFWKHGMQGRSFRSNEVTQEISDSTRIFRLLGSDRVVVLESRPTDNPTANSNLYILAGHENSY
Chain of CHEK2 (O96017 whole entry): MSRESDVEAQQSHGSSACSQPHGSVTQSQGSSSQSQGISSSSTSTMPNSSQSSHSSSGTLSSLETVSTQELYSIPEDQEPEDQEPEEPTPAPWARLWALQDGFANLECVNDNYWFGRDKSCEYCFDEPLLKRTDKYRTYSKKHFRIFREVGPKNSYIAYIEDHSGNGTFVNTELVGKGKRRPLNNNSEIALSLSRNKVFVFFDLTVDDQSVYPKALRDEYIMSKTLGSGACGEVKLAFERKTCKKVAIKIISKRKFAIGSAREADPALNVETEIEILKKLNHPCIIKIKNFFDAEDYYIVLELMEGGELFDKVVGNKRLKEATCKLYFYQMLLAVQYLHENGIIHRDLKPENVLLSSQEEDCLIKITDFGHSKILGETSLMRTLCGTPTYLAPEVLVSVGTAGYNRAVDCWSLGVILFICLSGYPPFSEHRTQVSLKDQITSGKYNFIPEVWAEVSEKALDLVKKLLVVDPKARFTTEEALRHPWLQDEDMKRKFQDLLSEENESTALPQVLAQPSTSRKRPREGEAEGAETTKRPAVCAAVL

O=C1CCC(N2C(=O)c3cccc(NCCCCCCCCNC(=O)N4CC[C@H](NC5=Nc6cc(F)ccc6N(CC(F)F)c6ccc(Cl)cc65)C4)c3C2=O)C(=O)N1 (stereo partly drawn) [BJG-05-039, (3S)-3-((2-Chloro-5-(2,2-difluoroethyl)-8-fluoro-5H-dibenzo[b,e][1,4]diazepin-11-yl)amino)-N-(8-((2-(2,6-dioxopiperidin-3-yl)-1,3-dioxoisoindolin-4-yl)amino)octyl)pyrrolidine-1-carboxamide]
remaining binding at 10 µM (PFPK5(P. falciparum)): 100% | remaining binding at 10 µM (MAP4K3): 72% | remaining binding at 10 µM (MET): 68% | remaining binding at 10 µM (BRAF): 98% | remaining binding at 10 µM (PRKG2): 100% | remaining binding at 10 µM (MAP4K4): 45% | remaining binding at 10 µM (NDR1): 86% | remaining binding at 10 µM (PIK3CA(H1047L)): 63% | remaining binding at 10 µM (ALK): 97% | remaining binding at 10 µM (EPHB3): 89% | remaining binding at 10 µM (TRKC): 100% | remaining binding at 10 µM (ERK1): 83% | remaining binding at 10 µM (PIM1): 75% | remaining binding at 10 µM (PIK3CA(E545K)): 100% | remaining binding at 10 µM (ALK(C1156Y)): 100% | remaining binding at 10 µM (FGFR3(G697C)): 95% | remaining binding at 10 µM (CHEK2): 62% | remaining binding at 10 µM (PRKCI): 100% | remaining binding at 10 µM (CDK7): 100% | remaining binding at 10 µM (RIPK5): 87%
